Laboratory results from ChEMBL document CHEMBL4138181, “Synthesis, molecular docking, and QSAR study of sulfonamide-based indoles as aromatase inhibitors” (Eur J Med Chem, 2018).

What was measured:
Aromatase [1] = target: T1, Aromatase (Homo sapiens, UniProt P11511); assay: Inhibition of aromatase (unknown origin) using O-benzyl fluorescein benzyl ester as substrate in presence of NADPH-generating system by fluorescence assay
T1 sequence (P11511 whole entry): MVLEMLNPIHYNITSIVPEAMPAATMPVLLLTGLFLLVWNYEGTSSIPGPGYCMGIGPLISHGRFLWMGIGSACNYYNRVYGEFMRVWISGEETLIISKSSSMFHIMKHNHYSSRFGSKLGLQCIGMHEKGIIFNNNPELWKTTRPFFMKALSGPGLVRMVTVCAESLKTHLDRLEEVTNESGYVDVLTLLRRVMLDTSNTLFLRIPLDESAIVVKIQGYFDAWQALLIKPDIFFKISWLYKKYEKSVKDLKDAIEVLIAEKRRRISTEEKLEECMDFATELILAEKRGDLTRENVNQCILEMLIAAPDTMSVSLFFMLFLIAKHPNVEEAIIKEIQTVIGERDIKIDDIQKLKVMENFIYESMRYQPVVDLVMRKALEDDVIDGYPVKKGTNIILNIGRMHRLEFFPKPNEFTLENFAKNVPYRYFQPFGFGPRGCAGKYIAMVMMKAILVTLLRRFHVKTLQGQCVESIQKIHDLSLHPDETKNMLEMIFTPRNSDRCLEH

Vero = assay: Cytotoxicity against GFP-expressing African green monkey Vero cells after 4 days by fluorescence assay; format: cell-based; conditions: Chlorocebus sabaeus, 96 h
aromatase [2] = assay: Selectivity index, ratio of IC50 for GFP-expressing African green monkey Vero cells to IC50 for aromatase (unknown origin); format: toxicity; conditions: read-out: Ratio IC50

Row | IC50 (Aromatase [1]) [µM] | SMILES | IC50 (Vero) | selectivity ratio (aromatase [2])
1 | 4.2 | O=S(=O)(NCCc1c(C(c2ccccc2O)c2[nH]c3ccccc3c2CCNS(=O)(=O)c2ccc(Cl)cc2)[nH]c2ccccc12)c1ccc(Cl)cc1 | > 50 µg/mL | > 15.4
2 | 11.2 | O=[N+]([O-])c1ccc(S(=O)(=O)NCCc2c(C(c3ccccc3)c3[nH]c4ccccc4c3CCNS(=O)(=O)c3ccc([N+](=O)[O-])cc3)[nH]c3ccccc23)cc1 | > 50 µg/mL | > 5.73
3 | 4.4 | O=S(=O)(NCCc1c(C(c2ccc(F)cc2)c2[nH]c3ccccc3c2CCNS(=O)(=O)c2ccc(C(F)(F)F)cc2)[nH]c2ccccc12)c1ccc(C(F)(F)F)cc1 | 15.1 µM | 3.42
4 | 11.9 | O=C1Nc2ccccc2C1(c1[nH]c2ccccc2c1CCNS(=O)(=O)c1cccc([N+](=O)[O-])c1)c1[nH]c2ccccc2c1CCNS(=O)(=O)c1cccc([N+](=O)[O-])c1 | > 50 µg/mL | > 5.13
5 | 3.5 | O=[N+]([O-])c1ccc(C(c2[nH]c3ccccc3c2CCNS(=O)(=O)c2ccc(F)cc2)c2[nH]c3ccccc3c2CCNS(=O)(=O)c2ccc(F)cc2)cc1 | > 50 µg/mL | > 18.6
6 | 8.3 | O=C1Nc2ccccc2C1(c1[nH]c2ccccc2c1CCNS(=O)(=O)c1ccc(Cl)cc1)c1[nH]c2ccccc2c1CCNS(=O)(=O)c1ccc(Cl)cc1 | > 50 µg/mL | > 7.54
7 | 4 | O=[N+]([O-])c1ccc(C(c2[nH]c3ccccc3c2CCNS(=O)(=O)c2ccc(C(F)(F)F)cc2)c2[nH]c3ccccc3c2CCNS(=O)(=O)c2ccc(C(F)(F)F)cc2)cc1 | > 50 µg/mL | > 14.4
8 | 1.4 | O=S(=O)(NCCc1c(C(c2ccc(O)cc2)c2[nH]c3ccccc3c2CCNS(=O)(=O)c2ccc(Cl)cc2)[nH]c2ccccc12)c1ccc(Cl)cc1 | 15 µM | 10.7
9 | 9.8 | N#Cc1ccc(C(c2[nH]c3ccccc3c2CCNS(=O)(=O)c2ccc(F)cc2)c2[nH]c3ccccc3c2CCNS(=O)(=O)c2ccc(F)cc2)cc1 | > 50 µg/mL | > 6.8
10 | 3.2 | O=S(=O)(NCCc1c(C(c2ccc(C(F)(F)F)cc2)c2[nH]c3ccccc3c2CCNS(=O)(=O)c2ccc(Cl)cc2)[nH]c2ccccc12)c1ccc(Cl)cc1 | 16.2 µM | 5.06
11 | 3.5 | COc1ccc(S(=O)(=O)NCCc2c(C(c3ccccc3)c3[nH]c4ccccc4c3CCNS(=O)(=O)c3ccc(OC)cc3)[nH]c3ccccc23)cc1 | > 50 µg/mL | > 19.1
12 |  | Cc1c2ccncc2c(C)c2c1[nH]c1ccccc12 [ELLIPTECINE] | 1.94 µM | 
13 | 2.7 | O=[N+]([O-])c1ccc(C(c2[nH]c3ccccc3c2CCNS(=O)(=O)c2ccc(Br)cc2)c2[nH]c3ccccc3c2CCNS(=O)(=O)c2ccc(Br)cc2)cc1 | > 50 µg/mL | > 20.8
14 | 5.4 | O=S(=O)(NCCc1c(C(c2ccc(F)cc2)c2[nH]c3ccccc3c2CCNS(=O)(=O)c2ccc(Cl)cc2)[nH]c2ccccc12)c1ccc(Cl)cc1 | > 50 µg/mL | > 11.9
15 | 8.8 | O=S(=O)(NCCc1c(C(c2ccc3c(c2)Cc2ccccc2-3)c2[nH]c3ccccc3c2CCNS(=O)(=O)c2ccc(Cl)cc2)[nH]c2ccccc12)c1ccc(Cl)cc1 | > 50 µg/mL | > 6.72
16 | 2.3 | O=[N+]([O-])c1cccc(S(=O)(=O)NCCc2c(C(c3ccc(O)cc3)c3[nH]c4ccccc4c3CCNS(=O)(=O)c3cccc([N+](=O)[O-])c3)[nH]c3ccccc23)c1 | > 50 µg/mL | > 27.4
17 | 11.9 | Cc1ccc(S(=O)(=O)NCCc2c(C(c3ccccc3)c3[nH]c4ccccc4c3CCNS(=O)(=O)c3ccc(C)cc3)[nH]c3ccccc23)cc1 | > 50 µg/mL | > 5.86
18 | 2.8 | O=[N+]([O-])c1ccc(S(=O)(=O)NCCc2c(C(c3ccccc3O)c3[nH]c4ccccc4c3CCNS(=O)(=O)c3ccc([N+](=O)[O-])cc3)[nH]c3ccccc23)cc1 | > 50 µg/mL | > 22.5

Row | IC50 (Aromatase [1]) [µM] | SMILES | IC50 (Vero) | selectivity ratio (aromatase [2])
19 | 4.1 | Cc1ccc(S(=O)(=O)NCCc2c(C(c3ccccc3O)c3[nH]c4ccccc4c3CCNS(=O)(=O)c3ccc(C)cc3)[nH]c3ccccc23)cc1 | 14.8 µM | 3.6
20 | 1.3 | O=S(=O)(NCCc1c(C(c2ccc(O)cc2)c2[nH]c3ccccc3c2CCNS(=O)(=O)c2ccc(C(F)(F)F)cc2)[nH]c2ccccc12)c1ccc(C(F)(F)F)cc1 | 13.3 µM | 10.2
21 | 2.5 | COc1ccc(S(=O)(=O)NCCc2c(C(c3cc(OC)c(O)c(OC)c3)c3[nH]c4ccccc4c3CCNS(=O)(=O)c3ccc(OC)cc3)[nH]c3ccccc23)cc1 | > 50 µg/mL | > 24.2
22 | 15.3 | N#Cc1ccc(C(c2[nH]c3ccccc3c2CCNS(=O)(=O)c2ccc(C(F)(F)F)cc2)c2[nH]c3ccccc3c2CCNS(=O)(=O)c2ccc(C(F)(F)F)cc2)cc1 | > 50 µg/mL | > 3.85
23 | 9.8 | O=C1Nc2ccccc2C1(c1[nH]c2ccccc2c1CCNS(=O)(=O)c1ccccc1[N+](=O)[O-])c1[nH]c2ccccc2c1CCNS(=O)(=O)c1ccccc1[N+](=O)[O-] | > 50 µg/mL | > 6.22
24 | 2.7 | O=S(=O)(NCCc1c(C(c2ccc(Br)cc2)c2[nH]c3ccccc3c2CCNS(=O)(=O)c2ccc(Cl)cc2)[nH]c2ccccc12)c1ccc(Cl)cc1 | 44.9 µM | 16.6
25 | 2.8 | COc1ccc(S(=O)(=O)NCCc2c(C3(c4[nH]c5ccccc5c4CCNS(=O)(=O)c4ccc(OC)cc4)C(=O)Nc4ccccc43)[nH]c3ccccc23)cc1 | > 50 µg/mL | > 22.6
26 | 3.8 | O=S(=O)(NCCc1c(C(c2ccc(C(F)(F)F)cc2)c2[nH]c3ccccc3c2CCNS(=O)(=O)c2ccc(Br)cc2)[nH]c2ccccc12)c1ccc(Br)cc1 | > 50 µg/mL | > 14.4
27 | 7.6 | O=S(=O)(NCCc1c(C(c2ccc(F)cc2)c2[nH]c3ccccc3c2CCNS(=O)(=O)c2ccc(Br)cc2)[nH]c2ccccc12)c1ccc(Br)cc1 | > 50 µg/mL | > 7.61
28 | 5.5 | N#Cc1ccc(C(c2[nH]c3ccccc3c2CCNS(=O)(=O)c2ccc(Cl)cc2)c2[nH]c3ccccc3c2CCNS(=O)(=O)c2ccc(Cl)cc2)cc1 | > 50 µg/mL | > 11.6
29 | 0.8 | COc1ccc(S(=O)(=O)NCCc2c(C(c3ccccc3O)c3[nH]c4ccccc4c3CCNS(=O)(=O)c3ccc(OC)cc3)[nH]c3ccccc23)cc1 | > 50 µg/mL | > 81.7
30 | 2.3 | O=S(=O)(NCCc1c(C(c2ccc(C(F)(F)F)cc2)c2[nH]c3ccccc3c2CCNS(=O)(=O)c2ccc(C(F)(F)F)cc2)[nH]c2ccccc12)c1ccc(C(F)(F)F)cc1 | > 50 µg/mL | > 24.4
31 | 4.6 | O=[N+]([O-])c1ccccc1S(=O)(=O)NCCc1c(C(c2ccccc2O)c2[nH]c3ccccc3c2CCNS(=O)(=O)c2ccccc2[N+](=O)[O-])[nH]c2ccccc12 | > 50 µg/mL | > 13.7
32 | 0.7 | COc1ccc(S(=O)(=O)NCCc2c(C(c3ccc(O)cc3)c3[nH]c4ccccc4c3CCNS(=O)(=O)c3ccc(OC)cc3)[nH]c3ccccc23)cc1 | > 50 µg/mL | > 93.4
33 | 1.7 | O=[N+]([O-])c1cccc(S(=O)(=O)NCCc2c(C(c3ccccc3O)c3[nH]c4ccccc4c3CCNS(=O)(=O)c3cccc([N+](=O)[O-])c3)[nH]c3ccccc23)c1 | > 50 µg/mL | > 37
34 | 3.4 | O=S(=O)(NCCc1c(C(c2ccc(Br)cc2)c2[nH]c3ccccc3c2CCNS(=O)(=O)c2ccc(C(F)(F)F)cc2)[nH]c2ccccc12)c1ccc(C(F)(F)F)cc1 | 24.8 µM | 7.3
35 | 3.9 | CCn1c2ccccc2c2ccc(C(c3[nH]c4ccccc4c3CCNS(=O)(=O)c3ccc(Cl)cc3)c3[nH]c4ccccc4c3CCNS(=O)(=O)c3ccc(Cl)cc3)cc21 | > 50 µg/mL | > 14.7
